Measured values taken from the NIST ThermoML archive (doi:10.1007/s10765-011-0996-9).
± gives the expanded uncertainty stated by the source.

Experiment: cn = amount concentration of the nth substance listed, in mol/dm3
Conditions: 101 kPa, Liquid, Capillary tube (Ostwald / Ubbelohde) method, c1 = 2

SMILES	viscosity (298.15 K) [mPa·s]	viscosity (303.15 K) [mPa·s]	viscosity (308.15 K) [mPa·s]	viscosity (313.15 K) [mPa·s]	viscosity (318.15 K) [mPa·s]	viscosity (323.15 K) [mPa·s]
O=[N+]([O-])[O-].[K+] [potassium nitrate] + O	0.8985 ± 0.0072	0.8134 ± 0.0066	0.7473 ± 0.0061	0.6857 ± 0.0057	0.6322 ± 0.0054	0.5838 ± 0.005
[Cl-].[K+] [potassium chloride] + O	0.9063 ± 0.0073	0.8279 ± 0.0067	0.7573 ± 0.0062	0.6954 ± 0.0058	0.64 ± 0.0054	0.5914 ± 0.0051
